Columns and labels:
[1] = system: chymotrypsin-like activity of the proteasome; experiment: Proteasome activity in cell lysates (Suc-LLVY-AMC cleavage); format: biochemical; conditions: cell lysates from leukemia and myeloma cell lines
Experimental: A) Proteasome activity of MDAY-D2 and JJN3 cellular extracts after two hours of treatment with clioquinol (CQ), CuCl2 (Cu), or an equimolar concentration of CQ and Cu. After treatment, the preferential chymotrypsin-like substrate Suc-LLVY-AMC was added and the rate of free AMC was measured over time with a florescent spectrophotometric plate reader (excitation=380 nm, emission=460 nm). B) Proteasome activity of intact MDAY-D2 and JJN3 cells after two hours of treatment with clioquinol (CQ), CuCl2 (Cu), or an equimolar concentration of CQ and Cu. After treatment, the preferential chymotrypsin-like substrate Suc-LLVY-AMC was added and the rate of free AMC was measured over time with a florescent spectrophotometric plate reader (excitation=380 nm, emission=460 nm). […] The chymotrypsin-like activity of the proteasome was measured by incubating equal amounts of protein with the preferential chymotrypsin-like substrate Suc-LLVY-AMC in assay buffer (50 mM Tris-HCl, pH 7.5, 150 mM NaCl) for two hours. After incubation, […] and the rate of free AMC was measured over time with a florescent spectrophotometric plate reader (excitation=380 nm, emission=460 nm). […] The chymotrypsin-like activity of the proteasome was measured by monitoring the rate of cleavage of the fluorescent substrate Suc-LLVY-AMC.

[2] = system: chymotrypsin-like activity of the proteasome; experiment: Proteasome activity after treatment of intact cell lines; format: cell-based; conditions: intact leukemia and myeloma cell lines
Experimental: A) Proteasome activity of MDAY-D2 and JJN3 cellular extracts after two hours of treatment with clioquinol (CQ), CuCl2 (Cu), or an equimolar concentration of CQ and Cu. After treatment, the preferential chymotrypsin-like substrate Suc-LLVY-AMC was added and the rate of free AMC was measured over time with a florescent spectrophotometric plate reader (excitation=380 nm, emission=460 nm). B) Proteasome activity of intact MDAY-D2 and JJN3 cells after two hours of treatment with clioquinol (CQ), CuCl2 (Cu), or an equimolar concentration of CQ and Cu. After treatment, the preferential chymotrypsin-like substrate Suc-LLVY-AMC was added and the rate of free AMC was measured over time with a florescent spectrophotometric plate reader (excitation=380 nm, emission=460 nm). Cellular proteins were extracted from cells with lysis buffer (50 mM HEPES pH 7.5, 150 mM NaCl, 2 mM ATP, and 1% Triton X-100). The chymotrypsin-like activity of the proteasome was measured by incubating equal amounts of protein with the preferential chymotrypsin-like substrate Suc-LLVY-AMC in assay buffer (50 mM Tris-HCl, pH 7.5, 150 mM NaCl) for two hours. After incubation, […] and the rate of free AMC was measured over time with a florescent spectrophotometric plate reader (excitation=380 nm, emission=460 nm). […]

[Cl][Cu][Cl] [copper, CuCl2]
rate of Suc-LLVY-AMC cleavage [1]: inhibited the rate of Suc-LLVY-AMC cleavage
chymotrypsin-like activity of the proteasome [2]: no effect on the function of proteasome

From US20110123617A1, “CLIOQUINOL FOR THE TREATMENT OF HEMATOLOGICAL MALIGNANCIES” (priority 2007, published 2011)
